Source: patent US20200032213A1, “CONDITIONALLY IMMORTALIZED CELLS AND METHODS FOR THEIR PREPARATION” (Academisch Ziekenhuis Leiden h.o.d.n. LUMC, priority 2017, published 2020)

Key:
[1] = test system: adipogenically differentiated murine clone 6 and 7 tBPAs; assay: Adrenergic stimulation of adipogenically differentiated tBPAs (glycerol production, Ucp1 transcripts); type: cell-based
[2] = test system: iaCMCs; assay: Dox-dependent proliferation of iaCMCs (Ki-67 immunostaining, cell counting); type: cell-based, rat; conditions: in the presence of Dox (100 ng/ml)
Procedure: Immunostaining of cultured cells was performed as previously described (Yu et al., 2016) using the following primary antibodies at a dilution of 1:200 in PBS containing 0.1% normal donkey serum (NDS; Sigma-Aldrich): mouse anti-LT (Santa Cruz Biotechnology, catalogue number: sc-147), rabbit anti-Ki-67 (Abcam, catalogue number: ab15580), mouse anti-α-actinin (Sigma-Aldrich, catalogue number: A7811), rabbit anti-MLC2a (Kubalak et al., 1994), rabbit anti-Cx43 (Sigma-Aldrich, catalogue number: C6219) and rabbit anti-ERG1/Kv11.1 (Millipore, catalogue number: AB5930). Bound antigens were detected using Alexa 488-conjugated donkey anti-rabbit IgG (H+L) (Thermo Fisher Scientific, catalogue number: A21206) and Alexa 568-coupled donkey anti-mouse IgG (H+L) (Thermo Fisher Scientific, catalogue number: A10037). These secondary antibodies were diluted 1:400 in PBS. Hoechst 33342 ([…]; Thermo Fisher Scientific) was used to counterstain nuclei. Stained cells were visualized using a digital color camera-equipped fluorescence microscope (Nikon Eclipse 80i; Nikon Instruments Europe, Amstelveen, The Netherlands). To assess their proliferation rate, […] were cultured at low density in medium with or without 100 ng/ml Dox. […]

[3] = test system: iaCMCs at day 6 of differentiation; assay: Optical voltage mapping of iaCMC-d6 cultures exposed to astemizole, 1-Hz pacing; type: cell-based, rat
Procedure: For studying AP propagation in confluent monolayer cultures, cells were seeded at a density of 8×10^5 cells/well in 24-well cell culture plates onto bovine fibronectin-coated round glass coverslips (15 mm diameter) and subjected to optical voltage mapping using di-4-ANEPPS (Thermo Fisher Scientific) as fluorescent voltage indicator as described previously (Bingen et al., 2014). The measurements were carried out at 37° C. on 9-day-old naCMC and nvCMC cultures and on iaCMCs that had been maintained for 0, 3, 6, 9 and 12 days in Dox-free medium. Optical signals were captured using a MiCAM ULTIMA-L imaging system (SciMedia, Costa Mesa, Calif.). Optical traces were analyzed using Brain Vision Analyzer 1208 software (Brainvision, Tokyo, Japan). To minimize noise artifacts, calculations were based on the average of the signals at a selected pixel and its eight nearest neighbors. CV and APD at different percentages of repolarization were determined using cardiomyocyte cultures showing uniform AP propagation and 1:1 capture after 1-Hz local electrical stimulation with an epoxy-coated bipolar platinum electrode delivering square 10-ms, 8-V suprathreshold electrical impulses via a STG 2004 stimulus generator and MC Stimulus II software (both from Multi Channel Systems). Burst pacing with a cycle length of 20 to 100 ms was used to induce reentry. […] To facilitate comparison of the APD, the amplitude of the optical signal traces was normalized for all samples within a given experiment.

[4] = test system: iaCMCs at day 9 of differentiation; assay: Optical voltage mapping of tertiapin-treated iaCMC-d9 monolayers, 1-Hz pacing; type: cell-based, rat; conditions: tertiapin (100 nM), iaCMCs cultured 9 days without Dox
Procedure: (§1) For studying AP propagation in confluent monolayer cultures, cells were seeded at a density of 8×10^5 cells/well in 24-well cell culture plates onto bovine fibronectin-coated round glass coverslips (15 mm diameter) and subjected to optical voltage mapping using di-4-ANEPPS (Thermo Fisher Scientific) as fluorescent voltage indicator as described previously (Bingen et al., 2014). The measurements were carried out at 37° C. on 9-day-old naCMC and nvCMC cultures and on iaCMCs that had been maintained for 0, 3, 6, 9 and 12 days in Dox-free medium. Optical signals were captured using a MiCAM ULTIMA-L imaging system (SciMedia, Costa Mesa, Calif.). Optical traces were analyzed using Brain Vision Analyzer 1208 software (Brainvision, Tokyo, Japan). To minimize noise artifacts, calculations were based on the average of the signals at a selected pixel and its eight nearest neighbors. CV and APD at different percentages of repolarization were determined using cardiomyocyte cultures showing uniform AP propagation and 1:1 capture after 1-Hz local electrical stimulation with an epoxy-coated bipolar platinum electrode delivering square 10-ms, 8-V suprathreshold electrical impulses via a STG 2004 stimulus generator and MC Stimulus II software (both from Multi Channel Systems). Burst pacing with a cycle length of 20 to 100 ms was used to induce reentry. […]

[5] = test system: confluent monolayers of iaCMCs; assay: In vitro AF model: induction of reentry by burst pacing in confluent iaCMC monolayers; type: cell-based, rat; conditions: 100 nM tertiapin, iaCMCs at day 6, 9 or 12 of differentiation
Procedure: as §1

[6] = test system: confluent naCMC cultures; conditions: naCMCs; Bingen et al., 2013; cited from earlier work

## C[C@H](Cc1ccc2c(c1)OC(C(=O)[O-])(C(=O)[O-])O2)NC[C@H](O)c1cccc(Cl)c1.[Na+].[Na+] [CL316243]
[1]
  Ucp1 transcript levels: increased
  glycerol production: increased

## C[C@H]1c2cccc(O)c2C(=O)C2=C(O)[C@]3(O)C(=O)C(C(N)=O)=C(O)[C@@H](N(C)C)[C@@H]3[C@@H](O)[C@@H]21 [Dox, doxycycline]
[2]
  average doubling time: 38 h
  iaCMCs positive for the proliferation marker Ki-67: 72.2±8.1%

## COc1ccc(CCN2CCC(Nc3nc4ccccc4n3Cc3ccc(F)cc3)CC2)cc1 [astemizole]
[3]; 0.1 µM
  conduction velocity (CV): 14.8 ± 2.8 cm/s
[3]; 100 nM astemizole, 30 minutes, iaCMC-d6, 1-Hz pacing, N=6, vehicle 21.5±1.0
  APD at 40% repolarization (APD40): 30.2 ± 2.1 ms
[3]; 100 nM astemizole, 30 minutes, iaCMC-d6, 1-Hz pacing, N=6, vehicle 88.7±5.4
  APD at 90% repolarization (APD90): 110.9 ± 4.2 ms

## NC[C@H](O)c1ccc(O)c(O)c1 [noradrenaline]
[1]
  Ucp1 transcript levels: increased
  glycerol production: increased

## tertiapin (ALCNCNRIIIPHMCWKKCGKK)
[4]
  effect on APD: strong increase
[5]
  inducibility of reentry by burst pacing: no longer possible to induce reentry
[6]
  termination of reentrant circuits (rotors) by prolonging APD: could be terminated
